What is called EC50 is the midpoint of the concentration-response curve. One may read the IC50 as the concentration at which inhibition is half-maximal. A low value points to greater potency in that assay.

23 compounds from patent publication US10336762B2 (priority 2017, dated 2019) can be followed below.

Each structure is given as a SMILES string. Where two headings read alike, the source gives them in different places.

One experiment relates to TNFα. The experiment is described as follows: cells. Type of experiment: cell-based, human. To be noted: Homo sapiens, Monocyte, read-out: EC50 TNF.
The next experiment has as its target IRAK4 enzyme (Homo sapiens (Human), UniProt Q9NWZ3). The experiment is described as follows: biochemical. Type of experiment: biochemical.
Where [1] appears, read: LPS-stimulated human monocytes, TNFα content.
The mark [2] stands for this setting: IRAK4 enzyme, TR-FRET, 500 μM ATP.

Sequence of IRAK4 enzyme (Q9NWZ3 whole entry): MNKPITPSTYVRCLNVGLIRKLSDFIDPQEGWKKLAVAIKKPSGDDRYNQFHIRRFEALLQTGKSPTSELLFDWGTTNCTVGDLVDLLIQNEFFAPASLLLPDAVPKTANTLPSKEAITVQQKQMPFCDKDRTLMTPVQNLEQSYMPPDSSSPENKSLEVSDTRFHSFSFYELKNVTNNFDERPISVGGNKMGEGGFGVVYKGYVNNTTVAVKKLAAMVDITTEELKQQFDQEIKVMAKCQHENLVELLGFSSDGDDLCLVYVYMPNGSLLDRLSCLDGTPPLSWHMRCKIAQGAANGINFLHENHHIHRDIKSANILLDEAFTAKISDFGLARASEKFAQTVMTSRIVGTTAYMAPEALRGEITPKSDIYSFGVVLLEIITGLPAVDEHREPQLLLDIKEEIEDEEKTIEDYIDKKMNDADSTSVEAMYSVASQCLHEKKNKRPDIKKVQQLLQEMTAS

Consider `CN(C)C(=O)NC12CCC(Nc3cc(-c4ccc5cc(C#N)cnn45)ncc3C(=O)NC[C@@H](F)C(C)(C)O)(CC1)CC2` [Example 272, (R)-6-(3-cyanopyrrolo[1,2-b]pyridazin-7-yl)-4-((4-(3,3-dimethylureido)bicyclo[2.2.2]octan-1-yl)amino)-N-(2-fluoro-3-hydroxy-3-methylbutyl)nicotinamide], for which the EC50 with TNFα (setting [1]) amounted to 23 nM. For the same compound, at IRAK4 enzyme (setting [2]), inhibition was half-maximal at 1 nM (IC50).
As to `CC(C)(O)C1CCC(Nc2cc(-c3ccc4cc(C#N)cnn34)ncc2C(=O)NC[C@@H](F)C(C)(C)O)CC1` (stereo partly drawn) [Example 273, 6-(3-cyanopyrrolo[1,2-b]pyridazin-7-yl)-N-((R)-2-fluoro-3-hydroxy-3-methylbutyl)-4-(((1r,4R)-4-(2-hydroxypropan-2-yl)cyclohexyl)amino) nicotinamide], in the experiment with TNFα (setting [1]), the concentration giving a half-maximal response (EC50) is 22 nM. The same compound gave an IC50 at IRAK4 enzyme (setting [2]) of 2 nM.
In the same order, the values of `CNC(=O)c1cnc(-c2ccc3cc(C#N)cnn23)cc1N[C@H]1CC[C@H](NC(=O)OC)CC1` [Example 274, methyl ((1r,4r)-4-((2-(3-cyanopyrrolo[1,2-b]pyridazin-7-yl)-5-(methylcarbamoyl)pyridin-4-yl)amino)cyclohexyl)carbamate] are 144 nM and 1 nM.
Regarding `CNC(=O)c1cnc(-c2ccc3cc(C#N)cnn23)cc1NC1CCC(NC(=O)C(F)(F)F)CC1` (stereo not shown) [Example 275, 6-(3-cyanopyrrolo[1,2-b]pyridazin-7-yl)-N-methyl-4-(((1r,4r)-4-(2,2,2-trifluoroacetamido)cyclohexyl)amino) nicotinamide], the EC50 in the experiment with TNFα (setting [1]) came out at 154 nM. This compound had an IC50 at IRAK4 enzyme (setting [2]) of 3 nM.
Taken in the same sequence, the figures for `CNC(=O)c1cnc(-c2ccc3cc(C#N)cnn23)cc1N[C@H]1CC[C@H](NC(C)=O)CC1` [Example 276, 4-(((1r,4r)-4-acetamidocyclohexyl)amino)-6-(3-cyano-pyrrolo[1,2-b]pyridazin-7-yl)-N-methylnicotinamide] were 146 nM and 3 nM.
Taken in the same sequence, the figures for `CC(=O)NC12CC(Nc3cc(-c4ccc5cc(C#N)cnn45)ncc3C(=O)NCC(F)(F)F)(C1)C2` [Example 277, 4-((3-acetamido-bicyclo[1.1.1]pentan-1-yl)amino)-6-(3-cyano-pyrrolo[1,2-b]pyridazin-7-yl)-N-(2,2,2-trifluoroethyl) nicotinamide] were 383 nM and 5 nM.
Taken in the same sequence, the figures for `CC(=O)NC12CC(Nc3cc(-c4ccc5cc(C#N)cnn45)ncc3C(=O)NCC(F)F)(C1)C2` [Example 278, 4-((3-acetamido-bicyclo[1.1.1]pentan-1-yl)amino)-6-(3-cyano-pyrrolo[1,2-b]pyridazin-7-yl)-N-(2,2-difluoroethyl) nicotinamide] were 165 nM and 3 nM.
As to `CC(C)(O)[C@H](F)CNC(=O)c1cnc(-c2ccc3cc(C#N)cnn23)cc1NC12CCC(NC(=O)OC3COC3)(CC1)CC2` [Example 279, (R)-oxetan-3-yl (4-((2-(3-cyanopyrrolo[1,2-b]pyridazin-7-yl)-5-((2-fluoro-3-hydroxy-3-methylbutyl)carbamoyl)pyridin-4-yl)amino)bicyclo[2.2.2]octan-1-yl)carbamate], the EC50 in the experiment with TNFα (setting [1]) stood at 29 nM. Moreover, at IRAK4 enzyme (setting [2]), the concentration for half-maximal inhibition (IC50) is 2 nM.
In the case of `CC(C)(O)[C@H](F)CNC(=O)c1cnc(-c2ccc3cc(C#N)cnn23)cc1N[C@H]1CC[C@H](NC(=O)OC2COC2)CC1` [Example 280, oxetan-3-yl ((1R,4r)-4-((2-(3-cyanopyrrolo[1,2-b]pyridazin-7-yl)-5-(((R)-2-fluoro-3-hydroxy-3-methylbutyl)carbamoyl)pyridin-4-yl)amino)cyclo-hexyl)carbamate], the concentration for a half-maximal effect (EC50) in the experiment on TNFα (setting [1]) worked out at 55 nM. For the same compound, at IRAK4 enzyme (setting [2]), the IC50 came to 1 nM.
In the same order, the values of `CC(C)(O)[C@H](F)CNC(=O)c1cnc(-c2ccc3cc(C#N)cnn23)cc1NC12CCC(NC(=O)C3CC3)(CC1)CC2` [Example 281, (R)-6-(3-cyanopyrrolo[1,2-b]pyridazin-7-yl)-4-((4-(cyclopropanecarboxamido)bicyclo[2.2.2]octan-1-yl)amino)-N-(2-fluoro-3-hydroxy-3-methylbutyl) nicotinamide] are 37 nM and 1 nM.
As to `CC1(C(=O)N[C@H]2CC[C@H](Nc3cc(-c4ccc5cc(C#N)cnn45)ncc3C(=O)NC[C@@H](F)C(C)(C)O)CC2)COC1` [Example 282, 6-(3-cyanopyrrolo[1,2-b]pyridazin-7-yl)-N-((R)-2-fluoro-3-hydroxy-3-methylbutyl)-4-(((1r,4R)-4-(3-methyloxetane-3-carboxamido)cyclohexyl)amino)nicotinamide], in the experiment on TNFα, the EC50 turned out to be 364 nM. For the same compound, the IC50 against IRAK4 enzyme came to 2 nM.
`[2H]C([2H])([2H])OC(=O)NC12CCC(Nc3cc(-c4ccc5cc(C#N)cnn45)ncc3C(=O)NC[C@@H](F)C(C)(C)O)(CC1)CC2` [Example 283, methyl-d3 (R)-(4-((2-(3-cyanopyrrolo[1,2-b]pyridazin-7-yl)-5-((2-fluoro-3-hydroxy-3-methylbutyl)carbamoyl)pyridin-4-yl)amino)bicyclo[2.2.2]octan-1-yl)carbamate]: the EC50 in the experiment on TNFα (setting [1]) was 14 nM. On IRAK4 enzyme (setting [2]), this compound registered an IC50 of 1 nM.
For `COCC(=O)N[C@H]1CC[C@H](Nc2cc(-c3ccc4cc(C#N)cnn34)ncc2C(=O)NC[C@@H](F)C(C)(C)O)CC1` [Example 284, 6-(3-cyanopyrrolo[1,2-b]pyridazin-7-yl)-N-((R)-2-fluoro-3-hydroxy-3-methylbutyl)-4-(((1r,4R)-4-(2-methoxyacetamido)cyclohexyl)amino) nicotinamide], the EC50 with TNFα (setting [1]) is 88 nM. Further, on IRAK4 enzyme (setting [2]), half-maximal inhibition (IC50) was put at 1 nM.
On to `CN(C)S(=O)(=O)N[C@H]1CC[C@H](Nc2cc(-c3ccc4cc(C#N)cnn34)ncc2C(=O)NC[C@@H](F)C(C)(C)O)CC1` [Example 285, 6-(3-cyanopyrrolo[1,2-b]pyridazin-7-yl)-4-(((1r,4R)-4-((N,N-dimethylsulfamoyl)amino)cyclohexyl)amino)-N-((R)-2-fluoro-3-hydroxy-3-methylbutyl)nicotinamide], for which, in the experiment with TNFα (setting [1]), the EC50 is 167 nM. Moreover, it took 2 nM to reach half-maximal inhibition on IRAK4 enzyme (setting [2]) (IC50).
Taken in the same sequence, the figures for `CN(C)C(=O)N[C@H]1CC[C@H](Nc2cc(-c3ccc4cc(C#N)cnn34)ncc2C(=O)NC[C@@H](F)C(C)(C)O)CC1` [Example 286, 6-(3-cyanopyrrolo[1,2-b]pyridazin-7-yl)-4-(((1r,4R)-4-(3,3-dimethylureido)cyclohexyl)amino)-N-((R)-2-fluoro-3-hydroxy-3-methylbutyl)nicotinamide] were 41 nM and 1 nM.
Take `CC(C)(O)[C@H](F)CNC(=O)c1cnc(-c2ccc3cc(C#N)cnn23)cc1N[C@H]1CC[C@H](NC(=O)OCC2CC2)CC1` [Example 287, cyclopropylmethyl ((1R,4r)-4-((2-(3-cyanopyrrolo[1,2-b]pyridazin-7-yl)-5-(((R)-2-fluoro-3-hydroxy-3-methylbutyl)carbamoyl)pyridin-4-yl)amino)cyclohexyl)carbamate]: the 50% effective concentration (EC50) in the experiment with TNFα (setting [1]) amounted to 147 nM. The IC50 on IRAK4 enzyme (setting [2]) amounted to 1 nM.
In the same order, the values of `CC(C)(O)[C@H](F)CNC(=O)c1cnc(-c2ccc3cc(C#N)cnn23)cc1N[C@H]1CC[C@H](NC(=O)OC2CCC2)CC1` [Example 288, cyclobutyl ((1R,4r)-4-((2-(3-cyanopyrrolo[1,2-b]pyridazin-7-yl)-5-(((R)-2-fluoro-3-hydroxy-3-methylbutyl)carbamoyl)pyridin-4-yl)amino)cyclohexyl)carbamate] are 54 nM and 1 nM.
`CC(C)(O)[C@H](F)CNC(=O)c1cnc(-c2ccc3cc(C#N)cnn23)cc1N[C@H]1CC[C@H](NCC(F)(F)F)CC1` [Example 289, 6-(3-cyanopyrrolo[1,2-b]pyridazin-7-yl)-N-((R)-2-fluoro-3-hydroxy-3-methylbutyl)-4-(((1r,4R)-4-((2,2,2-trifluoroethyl)amino)cyclohexyl)amino)nicotinamide]: the EC50 in the experiment on TNFα turned out to be 66 nM. The same compound came in with a concentration for half-maximal inhibition (IC50) against IRAK4 enzyme of 1 nM.
Consider `CC(C)COC(=O)N[C@H]1CC[C@H](Nc2cc(-c3ccc4cc(C#N)cnn34)ncc2C(=O)NC[C@@H](F)C(C)(C)O)CC1` [Example 290, isobutyl ((1R,4r)-4-((2-(3-cyanopyrrolo[1,2-b]pyridazin-7-yl)-5-(((R)-2-fluoro-3-hydroxy-3-methylbutyl)carbamoyl)pyridin-4-yl)amino)cyclohexyl)carbamate], for which, in the experiment with TNFα (setting [1]), the EC50 worked out at 121 nM. Further, 1 nM corresponded to half-maximal inhibition at IRAK4 enzyme (setting [2]) (IC50).
In the same order, the values of `CC(C)OC(=O)N[C@H]1CC[C@H](Nc2cc(-c3ccc4cc(C#N)cnn34)ncc2C(=O)NC[C@@H](F)C(C)(C)O)CC1` [Example 291, isopropyl ((1R,4r)-4-((2-(3-cyanopyrrolo[1,2-b]pyridazin-7-yl)-5-(((R)-2-fluoro-3-hydroxy-3-methylbutyl)carbamoyl)pyridin-4-yl)amino)cyclohexyl)carbamate] are 90 nM and 2 nM.
Taken in the same sequence, the figures for `CCOC(=O)N[C@H]1CC[C@H](Nc2cc(-c3ccc4cc(C#N)cnn34)ncc2C(=O)NC[C@@H](F)C(C)(C)O)CC1` [Example 292, ethyl ((1R,4r)-4-((2-(3-cyanopyrrolo[1,2-b]pyridazin-7-yl)-5-(((R)-2-fluoro-3-hydroxy-3-methylbutyl)carbamoyl)pyridin-4-yl)amino)cyclohexyl)carbamate] were 37 nM and 1 nM.
In the same order, the values of `COC(=O)N[C@H]1CC[C@H](Nc2cc(-c3ccc4cc(C#N)cnn34)ncc2C(=O)NC[C@@H](F)C(C)(C)OC(C)=O)CC1` [Example 293, (R)-4-(6-(3-cyanopyrrolo[1,2-b]pyridazin-7-yl)-4-(((1r,4R)-4-((methoxycarbonyl)amino)cyclohexyl)amino)nicotinamido)-3-fluoro-2-methylbutan-2-yl acetate] are 49 nM and 1 nM.
Turning to `CC(C)(O)[C@H](F)CNC(=O)c1cnc(-c2ccc3cc(C#N)cnn23)cc1N[C@H]1CC[C@H](NC(=O)C2CCOCC2)CC1` [Example 294, 6-(3-cyanopyrrolo[1,2-b]pyridazin-7-yl)-N-((R)-2-fluoro-3-hydroxy-3-methylbutyl)-4-(((1r,4R)-4-(tetrahydro-2H-pyran-4-carboxamido)cyclohexyl)amino)nicotinamide], the concentration giving a half-maximal response (EC50) with TNFα (setting [1]) turned out to be 735 nM. Moreover, inhibition against IRAK4 enzyme (setting [2]) was half-maximal at 3 nM (IC50).
